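Step 1: Grow cells in 96-well plates. Step 2: Expose to compound for 48 hours at 5 concentrations. Step 3: Interpolate endpoints linearly; if unreached, use highest concentration. Abbreviation: GI50, concentration required for 50% inhibition of growth. TGI is the concentration that stops growth completely.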
Legend:
Assay in all cases: growth of human tumour cells (NCI), 48 h
[1] = test system: BT-549 breast
[2] = test system: HS 578T breast
[3] = test system: M14 melanoma
[4] = test system: MOLT-4 leukemia
[5] = test system: NCI-H522 lung
[6] = test system: SNB-75 CNS
[7] = test system: UACC-257 melanoma
[8] = test system: SF-268 CNS
[9] = test system: SN12C renal
[10] = test system: SF-539 CNS
[11] = test system: NCI-H460 lung
[12] = test system: MDA-MB-231 breast
[13] = test system: RPMI-8226 leukemia
[14] = test system: SNB-19 CNS
[15] = test system: T-47D breast
[16] = test system: A549 NSCLC
[17] = test system: IGROV1 ovarian
[18] = test system: RXF 393 renal
[19] = test system: HCC-2998 colon
[20] = test system: NCI/ADR-RES ovarian
[21] = test system: OVCAR-3 ovarian
[22] = test system: SK-OV-3 ovarian
[23] = test system: SR leukemia
[24] = test system: NCI-H226 lung
[25] = test system: OVCAR-5 ovarian
[26] = test system: UACC-62 melanoma
[27] = test system: HT29 colon
[28] = test system: HL-60(TB) leukemia
[29] = test system: OVCAR-8 ovarian
[30] = test system: HCT-116 colon
[31] = test system: SK-MEL-2 melanoma
[32] = test system: 786-0 renal
[33] = test system: NCI-H23 lung
[34] = test system: ACHN renal
[35] = test system: U251 CNS
[36] = test system: MDA-MB-435
[37] = test system: SK-MEL-5 melanoma
[38] = test system: SK-MEL-28 melanoma
[39] = test system: CCRF-CEM leukemia
[40] = test system: COLO 205 colon
[41] = test system: TK-10 renal
[42] = test system: HOP-92 NSCLC
[43] = test system: HCT-15 colon
[44] = test system: SF-295 CNS
[45] = test system: K-562 leukemia
[46] = test system: MCF7 breast
[47] = test system: OVCAR-4 ovarian
[48] = test system: KM12 colon
[49] = test system: SW-620 colon
[50] = test system: PC-3 prostate
[51] = test system: EKVX NSCLC
[52] = test system: A498 renal
[53] = test system: HOP-62 NSCLC
[54] = test system: DU-145 prostate
[55] = test system: LOX IMVI melanoma
[56] = test system: CAKI-1 renal

CC(C)(C)OC(=O)N(CCCCNC(=O)OCc1ccccc1)CCCNC(=O)OCc1ccccc1
TGI [1]: > 100 µM
TGI [2]: > 100 µM
TGI [3]: > 100 µM
TGI [4]: 30 µM
TGI [5]: 19.4 µM
TGI [6]: > 100 µM
TGI [7]: > 100 µM
TGI [8]: > 100 µM
TGI [9]: > 100 µM
TGI [10]: > 100 µM
TGI [11]: > 100 µM
TGI [12]: > 100 µM
TGI [13]: > 100 µM
TGI [14]: > 100 µM
TGI [15]: > 100 µM
TGI [16]: > 100 µM
TGI [17]: > 100 µM
TGI [18]: > 100 µM
TGI [19]: > 100 µM
TGI [20]: > 100 µM
TGI [21]: > 100 µM
TGI [22]: > 100 µM
TGI [23]: > 100 µM
TGI [24]: > 100 µM
TGI [25]: > 100 µM
TGI [26]: > 100 µM
TGI [27]: > 100 µM
TGI [28]: 53.9 µM
TGI [29]: > 100 µM
TGI [30]: > 100 µM
TGI [31]: > 100 µM
TGI [32]: > 100 µM
TGI [33]: > 100 µM
TGI [34]: 22.6 µM
TGI [35]: > 100 µM
TGI [36]: > 100 µM
TGI [37]: 22.5 µM
TGI [38]: > 100 µM
TGI [39]: > 100 µM
TGI [40]: > 100 µM
TGI [41]: > 100 µM
TGI [42]: 99.1 µM
TGI [43]: > 100 µM
TGI [44]: > 100 µM
TGI [45]: > 100 µM
TGI [46]: > 100 µM
TGI [47]: > 100 µM
TGI [48]: > 100 µM
TGI [49]: > 100 µM
TGI [50]: > 100 µM
TGI [51]: > 100 µM
TGI [52]: > 100 µM
TGI [53]: > 100 µM
TGI [54]: > 100 µM

O=C(Nc1cc(C(F)(F)F)ccc1Cl)c1ccc(NC2=C(Cl)C(=O)N(Cc3ccccc3)C2=O)cc1
GI50 [1]: 15 µM
TGI [1]: 39.7 µM
GI50 [2]: 31.9 µM
TGI [2]: > 100 µM
GI50 [3]: 37.6 µM
TGI [3]: > 100 µM
GI50 [4]: 3.53 µM
TGI [4]: 77.7 µM
GI50 [5]: 11.1 µM
TGI [5]: 28 µM
GI50 [6]: 56.1 µM
TGI [6]: > 100 µM
GI50 [7]: 31.7 µM
TGI [7]: 96.9 µM
GI50 [8]: 32.7 µM
TGI [8]: > 100 µM
GI50 [9]: 19.6 µM
TGI [9]: 61.2 µM
GI50 [10]: 28.9 µM
TGI [10]: 77.5 µM
GI50 [11]: 34.3 µM
TGI [11]: > 100 µM
GI50 [12]: 18.8 µM
TGI [12]: 69.2 µM
GI50 [55]: 4.11 µM
TGI [55]: > 100 µM
GI50 [13]: 2.65 µM
TGI [13]: 8.51 µM
GI50 [14]: 30.4 µM
TGI [14]: > 100 µM
GI50 [15]: 14.1 µM
TGI [15]: > 100 µM
GI50 [16]: > 100 µM
TGI [16]: > 100 µM
GI50 [17]: 1.99 µM
TGI [17]: 6.41 µM
GI50 [18]: 23.7 µM
TGI [18]: 73 µM
GI50 [19]: 5.28 µM
TGI [19]: 9.11 µM
GI50 [20]: 62.7 µM
TGI [20]: > 100 µM
GI50 [21]: 19.1 µM
TGI [21]: 46.1 µM
GI50 [22]: > 100 µM
TGI [22]: > 100 µM
GI50 [23]: 1.3 µM
TGI [23]: 4.4 µM
GI50 [24]: 13.9 µM
TGI [24]: 65.5 µM
GI50 [25]: > 100 µM
TGI [25]: > 100 µM
GI50 [26]: 16.7 µM
TGI [26]: 38.9 µM
GI50 [27]: 26.6 µM
TGI [27]: > 100 µM
GI50 [28]: 3.08 µM
TGI [28]: 9.33 µM
GI50 [29]: 14.6 µM
TGI [29]: 41.3 µM
GI50 [30]: 17.2 µM
TGI [30]: > 100 µM
GI50 [31]: 18.6 µM
TGI [31]: 40.6 µM
GI50 [32]: 23.4 µM
TGI [32]: > 100 µM
GI50 [33]: 18.9 µM
TGI [33]: 43.9 µM
GI50 [34]: 23.8 µM
TGI [34]: 64.9 µM
GI50 [35]: 22.6 µM
TGI [35]: > 100 µM
GI50 [36]: 29.5 µM
TGI [36]: > 100 µM
GI50 [37]: 18.6 µM
TGI [37]: 60.4 µM
GI50 [38]: 23.9 µM
TGI [38]: 63.5 µM
GI50 [39]: 1.42 µM
TGI [39]: 11.7 µM
GI50 [40]: 16 µM
TGI [40]: 35.6 µM
GI50 [41]: 24.7 µM
TGI [41]: 62.3 µM
GI50 [42]: 15.7 µM
TGI [42]: 56.3 µM
GI50 [43]: 13.2 µM
TGI [43]: > 100 µM
GI50 [44]: 40.1 µM
TGI [44]: > 100 µM
GI50 [45]: 3.67 µM
TGI [45]: 19.6 µM
GI50 [46]: 11.6 µM
TGI [46]: > 100 µM
GI50 [56]: 42.6 µM
TGI [56]: > 100 µM
GI50 [47]: 47.4 µM
TGI [47]: > 100 µM
GI50 [48]: 23.7 µM
TGI [48]: 74.9 µM
GI50 [49]: 6.72 µM
TGI [49]: > 100 µM
GI50 [50]: 14.8 µM
TGI [50]: 37.8 µM
GI50 [51]: 46.6 µM
TGI [51]: > 100 µM
GI50 [52]: 69.9 µM
TGI [52]: > 100 µM
GI50 [53]: > 100 µM
TGI [53]: > 100 µM
GI50 [54]: 26.9 µM
TGI [54]: 80.9 µM
